The results in this text go back to US20240391936A1, “TETRAHYDROTHIENO PYRIDINE DERIVATIVES AS DDRS INHIBITORS” (CHIESI FARMACEUTICI S.P.A., priority 2021, published 2024).

The target of test [1] is T1, DDR1 (Homo sapiens, UniProt Q08345). The experiment in a line: DDR1 binding assay (LanthaScreen Europium Kinase Binding assay). On the set-up: purchased Carna Biosciences. The note with it: binding assay, 5 nM DDR1, 20 nM Kinase Tracer 178; Ki from IC50 by Cheng-Prusoff; read-out: Ki DDR1. In short, it runs like this: (§1)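 TR-FRET tracer-displacement format: 665/615 nm emission ratio (340 nm excitation) gave IC50 by 4-parameter fit, then Ki via Cheng-Prusoff. Each kinase at 5 nM with 2 nM Eu-anti-GST antibody and Tracer 178 (DDR1 20 nM, DDR2 10 nM), 1 h, room temperature, HEPES pH 7.5 buffer.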

Test [2] concerns the target T2, DDR2 (Homo sapiens, UniProt Q16832).
T2 sequence (Q16832 22-855): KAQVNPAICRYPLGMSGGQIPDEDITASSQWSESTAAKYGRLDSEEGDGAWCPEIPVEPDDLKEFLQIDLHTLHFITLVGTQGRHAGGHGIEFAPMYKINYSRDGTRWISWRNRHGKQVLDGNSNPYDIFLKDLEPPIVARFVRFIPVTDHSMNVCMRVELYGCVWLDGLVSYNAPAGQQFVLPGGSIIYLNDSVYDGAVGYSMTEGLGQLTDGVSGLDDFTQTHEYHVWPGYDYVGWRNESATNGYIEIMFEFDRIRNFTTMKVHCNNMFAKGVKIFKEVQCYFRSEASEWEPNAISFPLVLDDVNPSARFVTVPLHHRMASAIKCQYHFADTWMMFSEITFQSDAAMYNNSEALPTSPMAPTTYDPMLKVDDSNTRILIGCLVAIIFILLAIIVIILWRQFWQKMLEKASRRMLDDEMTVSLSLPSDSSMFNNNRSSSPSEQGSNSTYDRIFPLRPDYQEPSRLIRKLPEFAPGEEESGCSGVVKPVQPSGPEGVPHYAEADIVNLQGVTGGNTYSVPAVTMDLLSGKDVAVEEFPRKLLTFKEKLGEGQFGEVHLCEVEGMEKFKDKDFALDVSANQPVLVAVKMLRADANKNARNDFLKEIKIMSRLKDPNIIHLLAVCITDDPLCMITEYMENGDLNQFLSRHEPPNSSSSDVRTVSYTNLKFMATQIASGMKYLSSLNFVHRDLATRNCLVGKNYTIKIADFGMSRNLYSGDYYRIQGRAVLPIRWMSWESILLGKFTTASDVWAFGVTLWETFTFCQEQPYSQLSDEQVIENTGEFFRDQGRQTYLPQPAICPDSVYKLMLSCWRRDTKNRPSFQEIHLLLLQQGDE
The experiment in a line: DDR2 cell based assay (phospho-ELISA in HEK293T-DDR2 recombinant cells). Set-up: expressed in transfected cells; host or cells: HEK293T-DDR2 recombinant cells. The note with it: bovine Type II Collagen 50 μg/ml. As for the experimental part:
The inhibition of DDR2 phosphorylation by compounds was evaluated in HEK293T-DDR2 recombinant cells by phospho-ELISA assay. Briefly, HEK293T-DDR2 cells were seeded in poly-D-lysine-coated 24-well plates at a density of 250.000 cells/well and incubated for 1.5 hours at 37° C. and 5% CO2 in DMEM+10% FBS. After that, the medium was changed to serum-free DMEM and cells were incubated for 3 hours. Then. test compounds were added at different concentrations 30 minutes before stimulation with bovine Type II Collagen at 50 μg/ml for further 3 hours. For DDR2 phospho-ELISA assay (DuoSet IC Human Phospho-DDR2; R&D Systems), protein extracts were obtained by adding 60 μl/well of lysis buffer prepared according to the manufacturer's instructions. Protein concentration in the samples was determined by BCA assay and the levels of phospho-DDR2 were determined following R&D Systems indications. Raw data were normalized to maximal inhibition control (0% for normalization) and positive control (100% for normalization; cells treated with […] collagen II) and IC50 parameters were calculated in GraphPad Prism 8.0 software, using sigmoidal dose-response curve fitting with variable slope.
(In general: In an ELISA, binding on a coated surface is turned into a signal by an enzyme label.)

For test [3], the target named is T1, DDR1. The experiment in a line: DDR1 cell based assay (PathHunter U2OS DDR1 assay). On the set-up: host or cells: U2OS-DDR1 (PathHunter). The settings on record: U2OS-DDR1 cells, bovine Type II Collagen 20 μg/ml. The gist of the method:
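Receptor activation measured by enzyme-fragment complementation luminescence in engineered U2OS cells. Compound added 30 min before overnight challenge with 20 μg/ml bovine collagen II; data scaled between vehicle and collagen-stimulated controls, IC50 derived by four-parameter variable-slope fitting.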

Test [4] has as its target T2, DDR2. The experiment in a line: DDR2 binding assay (LanthaScreen Europium Kinase Binding assay). On the set-up: purchased Life Technologies. The settings on record: binding assay, 5 nM DDR2, 10 nM Kinase Tracer 178; Ki from IC50 by Cheng-Prusoff; read-out: Ki DDR2. The gist of the method: as §1
A general note: TR-FRET usually uses a lanthanide donor and a delayed reading to cut background.

For orientation: Ki means the equilibrium dissociation constant of an inhibitor or competing ligand from its target. The IC50 is the point on the concentration scale where inhibition reaches its midpoint.

The structures appear in SMILES notation. Bounds are passed on as bounds.

T1 sequence (Q08345 19-913): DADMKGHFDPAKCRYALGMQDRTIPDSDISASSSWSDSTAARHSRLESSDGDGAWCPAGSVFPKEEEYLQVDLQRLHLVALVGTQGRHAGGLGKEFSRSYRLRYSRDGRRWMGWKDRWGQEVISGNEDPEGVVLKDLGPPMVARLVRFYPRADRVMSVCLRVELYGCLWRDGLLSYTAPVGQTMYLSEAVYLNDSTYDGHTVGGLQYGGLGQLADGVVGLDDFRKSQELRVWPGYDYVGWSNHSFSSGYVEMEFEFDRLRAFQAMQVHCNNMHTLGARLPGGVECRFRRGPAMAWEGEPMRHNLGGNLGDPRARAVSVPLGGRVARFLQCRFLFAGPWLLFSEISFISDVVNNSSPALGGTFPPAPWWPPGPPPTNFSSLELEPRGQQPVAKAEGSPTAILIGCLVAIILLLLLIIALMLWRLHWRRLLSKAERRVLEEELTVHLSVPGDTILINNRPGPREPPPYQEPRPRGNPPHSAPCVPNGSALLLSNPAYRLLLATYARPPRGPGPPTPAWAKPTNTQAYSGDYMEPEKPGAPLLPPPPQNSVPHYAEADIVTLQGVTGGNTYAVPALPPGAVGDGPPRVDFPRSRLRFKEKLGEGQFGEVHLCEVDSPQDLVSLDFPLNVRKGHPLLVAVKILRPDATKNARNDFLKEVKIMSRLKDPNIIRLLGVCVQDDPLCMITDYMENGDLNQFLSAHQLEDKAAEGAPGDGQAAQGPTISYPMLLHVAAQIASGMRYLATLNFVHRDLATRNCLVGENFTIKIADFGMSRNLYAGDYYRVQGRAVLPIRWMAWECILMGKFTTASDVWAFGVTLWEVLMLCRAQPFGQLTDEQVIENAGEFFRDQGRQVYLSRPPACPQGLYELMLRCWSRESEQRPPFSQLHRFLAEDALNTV

On to `O=C(Nc1cc(CN2CCOCC2)cc(C(F)(F)F)c1)c1csc2c1CCN(C(=O)c1cnc3ccccn13)C2` [Example 20, 6-(imidazo[1,2-a]pyridine-3-carbonyl)-N-(3-(morpholinomethyl)-5-(trifluoromethyl)phenyl)-4,5,6,7-tetrahydrothieno[2,3-c]pyridine-3-carboxamide], for which the Ki on DDR1 [1] and on DDR2 [4] was under 25 nM in each case. Also, the IC50 on DDR2 [2] and at DDR1 [3] was under 25 nM each time.
For the compound `O=C(Nc1cccc(C(F)(F)F)c1)c1csc2c1CCN(Cc1cnc3[nH]ccc3c1)C2` [Example 69, 6-((1H-pyrrolo[2,3-b]pyridin-5-yl)methyl)-N-(3-(trifluoromethyl)phenyl)-4,5,6,7-tetrahydrothieno[2,3-c]pyridine-3-carboxamide], the Ki at DDR1 [1] and on DDR2 [4] was under 25 nM each time. Further, the IC50 on DDR2 [2] is 25 to 50 nM; on DDR1 [3], under 25 nM.
In the case of `Cc1cn(-c2cc(NC(=O)c3csc4c3CCN(C(=O)c3cnc5ccccn35)C4C)cc(C(F)(F)F)c2)cn1` (stereo not drawn) [Example 98, 6-(imidazo[1,2-a]pyridine-3-carbonyl)-7-methyl-N-(3-(4-methyl-1H-imidazol-1-yl)-5-(trifluoromethyl)phenyl)-4,5,6,7-tetrahydrothieno[2,3-c]pyridine-3-carboxamide], the inhibitory constant (Ki) at DDR1 [1] and at DDR2 [4] was under 25 nM in each case. For the same compound, the IC50 on DDR2 [2] and against DDR1 [3] was under 25 nM throughout.
On to `CN1CCN(c2ccc3ncc(C(=O)N4CCc5c(C(=O)Nc6cncc(C(F)(F)F)c6)csc5C4)n3c2)CC1` [Example 165, 6-(6-(4-methylpiperazin-1-yl)imidazo[1,2-a]pyridine-3-carbonyl)-N-(5-(trifluoromethyl)pyridin-3-yl)-4,5,6,7-tetrahydrothieno[2,3-c]pyridine-3-carboxamide], for which the Ki on DDR1 [1] and at DDR2 [4] was under 25 nM in each case. Besides, the results for the IC50 at DDR2 [2] and on DDR1 [3] were 25 to 50 nM and under 25 nM, respectively.
Consider `Cc1n[nH]c2ncc(CN3CCc4c(C(=O)Nc5cc(C(C)(C)C)nn5C)csc4C3)cc12` [Example 78, N-(3-(tert-butyl)-1-methyl-1H-pyrazol-5-yl)-6-((3-methyl-1H-pyrazolo[3,4-b]pyridin-5-yl)methyl)-4,5,6,7-tetrahydrothieno[2,3-c]pyridine-3-carboxamide], for which the Ki on DDR1 [1] and at DDR2 [4] was under 25 nM throughout. In addition, the IC50 on DDR2 [2] and on DDR1 [3] was under 25 nM in each case.
As to `COc1ccc(NC(=O)c2csc3c2CCN(Cc2cnc4[nH]ccc4c2)C3)cc1C(F)(F)F` [Example 71, 6-((1H-pyrrolo[2,3-b]pyridin-5-yl)methyl)-N-(4-methoxy-3-(trifluoromethyl)phenyl)-4,5,6,7-tetrahydrothieno[2,3-c]pyridine-3-carboxamide], the Ki at DDR1 [1] and on DDR2 [4] was under 25 nM throughout. Moreover, the IC50 on DDR2 [2] and against DDR1 [3] was under 25 nM throughout.
For `O=C(Nc1cccc(C(F)(F)F)c1)c1csc2c1CCN(Cc1ccnc3[nH]ccc13)C2` [Example 86, 6-((1H-pyrrolo[2,3-b]pyridin-4-yl)methyl)-N-(3-(trifluoromethyl)phenyl)-4,5,6,7-tetrahydrothieno[2,3-c]pyridine-3-carboxamide], the Ki at DDR1 [1] and at DDR2 [4] was under 25 nM throughout. In addition, the IC50 on DDR2 [2] and against DDR1 [3] was under 25 nM throughout.
As to `CC(C)(c1cc(NC(=O)c2csc3c2CCN(C(=O)c2cnc4ccccn24)C3)no1)C(F)(F)F` [Example 9, 6-(imidazo[1,2-a]pyridine-3-carbonyl)-N-(5-(1,1,1-trifluoro-2-methylpropan-2-yl)isoxazol-3-yl)-4,5,6,7-tetrahydrothieno[2,3-c]pyridine-3-carboxamide], the Ki at DDR1 [1] and at DDR2 [4] was under 25 nM in each case. Moreover, the IC50 on DDR2 [2] and against DDR1 [3] was under 25 nM throughout.
Take `O=C(Nc1cccc(C(F)(F)F)c1)c1csc2c1CCN(Cc1cnc3cnccn13)C2` [Example 84, 6-(imidazo[1,2-a]pyrazin-3-ylmethyl)-N-(3-(trifluoromethyl)phenyl)-4,5,6,7-tetrahydrothieno[2,3-c]pyridine-3-carboxamide]: the inhibition constant (Ki) on DDR1 [1] and on DDR2 [4] was under 25 nM each time. The IC50 on DDR2 [2] and against DDR1 [3] was under 25 nM in each case.
Take `Cn1nc(C(C)(C)C)cc1NC(=O)c1csc2c1CCN(C(=O)c1cnc3ccccn13)C2` [Example 3, N-(3-(tert-butyl)-1-methyl-1H-pyrazol-5-yl)-6-(imidazo[1,2-a]pyridine-3-carbonyl)-4,5,6,7-tetrahydrothieno[2,3-c]pyridine-3-carboxamide]: the Ki at DDR1 [1] and at DDR2 [4] was under 25 nM in each case. Further, the IC50 at DDR2 [2] and against DDR1 [3] was under 25 nM each time.
`O=C(Nc1cccc(C(F)(F)F)c1)c1csc2c1CCN(C(=O)c1cnc3cnccn13)C2` [Example 90, 6-(imidazo[1,2-a]pyrazine-3-carbonyl)-N-(3-(trifluoromethyl)phenyl)-4,5,6,7-tetrahydrothieno[2,3-c]pyridine-3-carboxamide]: the Ki at DDR1 [1] and on DDR2 [4] was under 25 nM each time. In addition, the IC50 on DDR2 [2] and on DDR1 [3] was under 25 nM each time.
Turning to `CC(C)(C)c1cc(NC(=O)c2csc3c2CCN(Cc2cnc4[nH]ncc4c2)C3)no1` [Example 134, 6-((1H-pyrazolo[3,4-b]pyridin-5-yl)methyl)-N-(5-(tert-butyl)isoxazol-3-yl)-4,5,6,7-tetrahydrothieno[2,3-c]pyridine-3-carboxamide], the Ki on DDR1 [1] and on DDR2 [4] was under 25 nM each time. Moreover, the IC50 at DDR2 [2] and against DDR1 [3] was under 25 nM each time.
As for `Cc1ccc(-n2nc(C(C)(C)C)cc2NC(=O)c2csc3c2CCN(Cc2cnc4[nH]ncc4c2)C3)cc1` [Example 75, 6-((1H-pyrazolo[3,4-b]pyridin-5-yl)methyl)-N-(3-(tert-butyl)-1-(p-tolyl)-1H-pyrazol-5-yl)-4,5,6,7-tetrahydrothieno[2,3-c]pyridine-3-carboxamide], the Ki on DDR1 [1] and at DDR2 [4] was under 25 nM throughout. The IC50 at DDR2 [2] and on DDR1 [3] was under 25 nM each time.
For `Cc1n[nH]c2ncc(CN3CCc4c(C(=O)Nc5cncc(C(F)(F)F)c5)csc4C3)cc12` [Example 150, 6-((3-methyl-1H-pyrazolo[3,4-b]pyridin-5-yl)methyl)-N-(5-(trifluoromethyl)pyridin-3-yl)-4,5,6,7-tetrahydrothieno[2,3-c]pyridine-3-carboxamide], the Ki at DDR1 [1] and at DDR2 [4] was under 25 nM in each case. The IC50 at DDR2 [2] and against DDR1 [3] was under 25 nM in each case.
Turning to `COc1ccc(NC(=O)c2csc3c2CCN(C(=O)c2cnc4ccccn24)C3)cc1C(F)(F)F` [Example 4, 6-(imidazo[1,2-a]pyridine-3-carbonyl)-N-(4-methoxy-3-(trifluoromethyl)phenyl)-4,5,6,7-tetrahydrothieno[2,3-c]pyridine-3-carboxamide], the Ki at DDR1 [1] and at DDR2 [4] was under 25 nM each time. The IC50 at DDR2 [2] and on DDR1 [3] was under 25 nM throughout.
